{"source": "patent US11759461B2", "about": "“Small molecule inhibitors of cancer stem cells and mesenchymal cancer types” (The Scripps Research Institute, priority 2017, dated 2023)"}
{"system": "FOXC2-expressing HMLER cells", "assay": "Cell Titer Glo viability of FOXC2-HMLER cells (high throughput screen and 10-point response)", "assay_type": "cell-based", "details": "Homo sapiens; scored relative to parent compound 3; 72 hours; read-out: Activity Score, inhibition of FOXC2-expressing HMLER cells by Formula III compounds", "how_it_was_run": "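FOXC2-HMLER cells (HMLER run in parallel) seeded at 1,000 cells/well in MEGM, attached 1 h, then given compound in DMSO (2 μM in the screen). After 72 h, viability was read by Cell Titer Glo luminescence.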", "units": {"IC50": "µM"}}
{"smiles": "Cc1ccc(NC(=O)c2ccc(-n3nnc4cccnc43)c(C)c2)cc1C", "note": "[Compound 3AR]", "IC50": "> 20"}
{"smiles": "COc1ccc(N2CCN(C(=O)c3ccc(-n4nnc5cccnc54)c(C)c3)CC2)cc1", "note": "[Compound 3AS]", "IC50": "> 20"}
{"smiles": "Cc1ccc(NC(=O)c2ccc(-n3nnc4cccnc43)c(C)c2)cc1", "note": "[Compound 3AT]", "IC50": "> 20"}
{"smiles": "Cc1cc(C(=O)NCCCN2CCN(C3CCCCC3)CC2)ccc1-n1nnc2cccnc21", "note": "[Compound 3AU]", "IC50": "> 20"}
{"smiles": "O=C(c1cccc(-n2nnc3cccnc32)c1)N1CCCC1", "note": "[Compound 3AV]", "IC50": "> 20"}
{"smiles": "CCCCN(CC)C(=O)c1cccc(-n2nnc3cccnc32)c1", "note": "[Compound 3AW]", "IC50": "> 20"}
{"smiles": "CCCCN(C)C(=O)c1cccc(-n2nnc3cccnc32)c1", "note": "[Compound 3AX]", "IC50": "> 20"}
{"smiles": "O=C(NC1CCN(Cc2ccccc2)CC1)c1cccc(-n2nnc3cccnc32)c1", "note": "[Compound 3AY]", "IC50": "> 20"}
{"smiles": "COc1ccc(N2CCN(C(=O)c3cccc(-n4nnc5cccnc54)c3)CC2)cc1", "note": "[Compound 3AZ]", "IC50": "> 20"}
{"smiles": "Cc1cccc(N2CCN(C(=O)c3ccc(C)c(-n4nnc5cccnc54)c3)CC2C)c1", "note": "(centres unmarked) [Compound 3A]", "IC50": "< 1"}
{"smiles": "O=C(NCCCN1CCN(Cc2ccccc2)CC1)c1cccc(-n2nnc3cccnc32)c1", "note": "[Compound 3BA]", "IC50": "> 20"}
{"smiles": "Cc1ccc(C(=O)NCc2ccccc2)cc1-n1nnc2cccnc21", "note": "[Compound 3BB]", "IC50": "> 20"}
{"smiles": "Cc1ccc(C(=O)N(C)Cc2ccccc2)cc1-n1nnc2cccnc21", "note": "[Compound 3BC]", "IC50": "> 20"}
{"smiles": "Cc1ccc(CNC(=O)c2ccc(C)c(-n3nnc4cccnc43)c2)cc1", "note": "[Compound 3BD]", "IC50": "> 20"}
{"smiles": "Cc1ccc(C(=O)N2CCN(C3CCCCC3)CC2)cc1-n1nnc2cccnc21", "note": "[Compound 3BE]", "IC50": "> 20"}
{"smiles": "Cc1cccc(CNC(=O)c2ccc(C)c(-n3nnc4cccnc43)c2)c1", "note": "[Compound 3BF]", "IC50": "> 20"}
{"smiles": "CCN(Cc1ccccc1)C(=O)c1ccc(C)c(-n2nnc3cccnc32)c1", "note": "[Compound 3BG]", "IC50": "> 20"}
{"smiles": "Cc1ccc(C(=O)NC2CCN(Cc3ccccc3)CC2)cc1-n1nnc2cccnc21", "note": "[Compound 3BH]", "IC50": "> 20"}
{"smiles": "COc1ccc(N2CCN(C(=O)c3ccc(C)c(-n4nnc5cccnc54)c3)CC2)cc1", "note": "[Compound 3BI]", "IC50": "> 20"}
{"smiles": "Cc1ccc(C(=O)NCCCN(C)Cc2ccccc2)cc1-n1nnc2cccnc21", "note": "[Compound 3BJ]", "IC50": "> 20"}
{"smiles": "Cc1ccc(C(=O)NCCCN2CCN(c3cccc(Cl)c3)CC2)cc1-n1nnc2cccnc21", "note": "[Compound 3BK]", "IC50": "> 20"}
{"smiles": "Cc1ccc(C(=O)NCCCN2CCc3ccccc3C2)cc1-n1nnc2cccnc21", "note": "[Compound 3BL]", "IC50": "> 20"}
{"smiles": "Cc1ccc(C(=O)NCc2ccc(N(C)C)cc2)cc1-n1nnc2cccnc21", "note": "[Compound 3BM]", "IC50": "> 20"}
{"smiles": "Cc1c(C(=O)NCc2ccccc2)cccc1-n1nnc2cccnc21", "note": "[Compound 3BN]", "IC50": "> 20"}
{"smiles": "Cc1c(C(=O)NC2CCCCCC2)cccc1-n1nnc2cccnc21", "note": "[Compound 3BO]", "IC50": "> 20"}
{"smiles": "Cc1c(C(=O)N2CCN(C3CCCCC3)CC2)cccc1-n1nnc2cccnc21", "note": "[Compound 3BP]", "IC50": "> 20"}
{"smiles": "Cc1cccc(CNC(=O)c2cccc(-n3nnc4cccnc43)c2C)c1", "note": "[Compound 3BQ]", "IC50": "> 20"}
{"smiles": "Cc1c(C(=O)N2CCC(N3CCCCC3)CC2)cccc1-n1nnc2cccnc21", "note": "[Compound 3BR]", "IC50": "> 20"}
{"smiles": "CCCCN(C)C(=O)c1cccc(-n2nnc3cccnc32)c1C", "note": "[Compound 3BS]", "IC50": "> 20"}
{"smiles": "Cc1c(C(=O)NCC(C)c2ccccc2)cccc1-n1nnc2cccnc21", "note": "(centres unmarked) [Compound 3BT]", "IC50": "> 20"}
{"smiles": "Cc1c(C(=O)NC2CCN(Cc3ccccc3)CC2)cccc1-n1nnc2cccnc21", "note": "[Compound 3BU]", "IC50": "> 20"}
{"smiles": "Cc1c(C(=O)N2CCN(Cc3ccc4c(c3)OCO4)CC2)cccc1-n1nnc2cccnc21", "note": "[Compound 3BV]", "IC50": "> 20"}
{"smiles": "Cc1c(C(=O)N2CCN(c3ccccc3F)CC2)cccc1-n1nnc2cccnc21", "note": "[Compound 3BW]", "IC50": "> 20"}
{"smiles": "Cc1c(C(=O)NCCCN(C)Cc2ccccc2)cccc1-n1nnc2cccnc21", "note": "[Compound 3BX]", "IC50": "> 20"}
{"smiles": "Cc1c(C(=O)NCCN2CCCC2)cccc1-n1nnc2cccnc21", "note": "[Compound 3BY]", "IC50": "> 20"}
{"smiles": "COc1ccc(N2CCN(CCCNC(=O)c3cccc(-n4nnc5cccnc54)c3C)CC2)cc1", "note": "[Compound 3BZ]", "IC50": "> 20"}
{"smiles": "Cc1c(C(=O)N2CCN(c3cccc(Cl)c3)CC2)cccc1-n1nnc2cccnc21", "note": "[Compound 3B]", "IC50": "< 1"}
{"smiles": "Cc1ccc(CN2CCC(CNC(=O)c3cccc(-n4nnc5cccnc54)c3C)CC2)cc1", "note": "[Compound 3CA]", "IC50": "> 20"}
{"smiles": "Cc1c(C(=O)NCCCN2CCCC(C)C2)cccc1-n1nnc2cccnc21", "note": "(centres unmarked) [Compound 3CB]", "IC50": "> 20"}
{"smiles": "Cc1c(C(=O)NCCCN2CCN(c3ccc(F)cc3)CC2)cccc1-n1nnc2cccnc21", "note": "[Compound 3CC]", "IC50": "> 20"}
{"smiles": "Cc1c(C(=O)NCCCN2CCN(Cc3ccccc3)CC2)cccc1-n1nnc2cccnc21", "note": "[Compound 3CD]", "IC50": "> 20"}
{"smiles": "Cc1c(C(=O)NCCCN2CCC(N3CCCCC3)CC2)cccc1-n1nnc2cccnc21", "note": "[Compound 3CE]", "IC50": "> 20"}
{"smiles": "Cc1c(C(=O)NCCN(C)C2CCCCC2)cccc1-n1nnc2cccnc21", "note": "[Compound 3CF]", "IC50": "> 20"}
{"smiles": "Cc1c(C(=O)NCc2ccc(N(C)C)cc2)cccc1-n1nnc2cccnc21", "note": "[Compound 3CG]", "IC50": "> 20"}
{"smiles": "Cc1c(C(=O)NCCCN2CCN(C3CCCCC3)CC2)cccc1-n1nnc2cccnc21", "note": "[Compound 3CH]", "IC50": "> 20"}
{"smiles": "Cc1ccccc1CNC(=O)c1cccc(-n2nnc3cccnc32)c1C", "note": "[Compound 3CI]", "IC50": "> 20"}
{"smiles": "Cc1c(C(=O)NCCC(C)N2CCCC2)cccc1-n1nnc2cccnc21", "note": "(centres unmarked) [Compound 3CJ]", "IC50": "> 20"}
{"smiles": "Cc1c(C(=O)NC(C)C(=O)N2CCCCC2)cccc1-n1nnc2cccnc21", "note": "(centres unmarked) [Compound 3CK]", "IC50": "> 20"}
{"smiles": "O=C(c1ccc(-n2nnc3cccnc32)cc1)N1CCN(c2ccc(F)cc2)CC1", "note": "[Compound 3C]", "IC50": "< 1"}
{"smiles": "Cc1ccc(C)c(N2CCN(C(=O)c3cccc(-n4nnc5cccnc54)c3)CC2)c1", "note": "[Compound 3D]", "IC50": "< 1"}
{"smiles": "Cc1ccc(Cl)cc1N1CCN(C(=O)c2cccc(-n3nnc4cccnc43)c2)CC1", "note": "[Compound 3E]", "IC50": "< 1"}
{"smiles": "COc1cccc(N2CCN(C(=O)c3cccc(-n4nnc5cccnc54)c3C)CC2)c1", "note": "[Compound 3F]", "IC50": "< 1"}
{"smiles": "Cc1ccc(C)c(N2CCN(C(=O)c3ccc(-n4nnc5cccnc54)cc3)CC2)c1", "note": "[Compound 3G]", "IC50": "1 to 20"}
{"smiles": "Cc1ccc(Cl)cc1N1CCN(C(=O)c2ccc(-n3nnc4cccnc43)cc2)CC1", "note": "[Compound 3H]", "IC50": "1 to 20"}
{"smiles": "Cc1cccc(N2CCN(C(=O)c3ccc(-n4nnc5cccnc54)cc3)CC2C)c1", "note": "(centres unmarked) [Compound 3I]", "IC50": "1 to 20"}
{"smiles": "O=C(c1ccc(-n2nnc3cccnc32)cc1)N1CCN(c2ccccc2F)CC1", "note": "[Compound 3J]", "IC50": "1 to 20"}
{"smiles": "Cc1ccc(C)c(N2CCN(CCCNC(=O)c3ccc(-n4nnc5cccnc54)cc3)CC2)c1", "note": "[Compound 3K]", "IC50": "1 to 20"}
{"smiles": "Cc1cc(C(=O)N2CCN(c3ccccc3)CC2)ccc1-n1nnc2cccnc21", "note": "[Compound 3L]", "IC50": "1 to 20"}
{"smiles": "Cc1cc(C(=O)N2CCC(Cc3ccccc3)CC2)ccc1-n1nnc2cccnc21", "note": "[Compound 3M]", "IC50": "1 to 20"}
{"smiles": "Cc1cc(C(=O)NC2CCN(Cc3ccccc3)CC2)ccc1-n1nnc2cccnc21", "note": "[Compound 3N]", "IC50": "1 to 20"}
{"smiles": "Cc1cc(C(=O)Nc2cccc(CN3CCCC3)c2)ccc1-n1nnc2cccnc21", "note": "[Compound 3O]", "IC50": "1 to 20"}
{"smiles": "O=C(c1cccc(-n2nnc3cccnc32)c1)N1CCN(c2ccccc2)CC1", "note": "[Compound 3P]", "IC50": "1 to 20"}
